Reference: publication PMC4824452, “Substrate complexes of human dipeptidyl peptidase III reveal the mechanism of enzyme inhibition” (Scientific Reports, 2016)
Numbering of substitutions follows the chain as printed.

Key:
[1] = test system: hDPP III; parameters: method as in 2 sources, ref 22 = [22]; PMID 10822105; doi:10.1016/s0196-9781(00)00174-1; Yamamoto Y. , Hashimoto J. , Shimamura M. , Yamaguchi T. & Hazato T. Characterization of tynorphin, a potent endogenous inhibitor of dipeptidyl peptidaseIII . Peptides 21 , 503 – 508 ( 2000 ). 1082210 ||| ref 1 = [1]; PMID 21794094; doi:10.1111/j.1742-4658.2011.08275.x; Prajapati S. C. & Chauhan S. S. Dipeptidyl peptidase III: a multifaceted oligopeptide N-end cutter . FEBS J. 278 , 3256 – 3276 ( 2011 ). 21794094 10.1111/j.1742-4658.2011.08275.x; conditions: cited from earlier work
[2] = biological target: hDPP3(1-726) E451A, inactive hDPP III variant used for ITC (human) (UniProt Q9NY33); assay: ITC; 800 μM angiotensin II in the syringe into 40 μM enzyme in the cell; 25 °C; 50 mM Tris-HCl pH 8.0, 100 mM NaCl; one-binding-site model
[3] = test system: hDPP III; conditions: cited from earlier work
Description: The octapeptide angiotensin-II (DRVYIHPF) is a potent vasoconstrictor and is involved in regulating mammalian blood pressure.

[4] = test system: partially purified DPP III from monkey brain; parameters: method as in PMID 10822105; conditions: cited from earlier work
[5] = test system: human DPP III; conditions: cited from earlier work
[6] = biological target: T1, hDPP III, wild-type enzyme (Homo sapiens, UniProt Q9NY33); assay: Fluorometric activity assay, release of β-naphthylamine, wild-type enzyme; assay type: biochemical; conditions: wild-type enzyme 20 pM; substrate 1 μM to 200 μM; 37 °C, 50 mM Tris-HCl pH 8.0, 100 mM NaCl; fluorescence ex 320 nm, em 420 nm
T1 sequence (Q9NY33 1-737): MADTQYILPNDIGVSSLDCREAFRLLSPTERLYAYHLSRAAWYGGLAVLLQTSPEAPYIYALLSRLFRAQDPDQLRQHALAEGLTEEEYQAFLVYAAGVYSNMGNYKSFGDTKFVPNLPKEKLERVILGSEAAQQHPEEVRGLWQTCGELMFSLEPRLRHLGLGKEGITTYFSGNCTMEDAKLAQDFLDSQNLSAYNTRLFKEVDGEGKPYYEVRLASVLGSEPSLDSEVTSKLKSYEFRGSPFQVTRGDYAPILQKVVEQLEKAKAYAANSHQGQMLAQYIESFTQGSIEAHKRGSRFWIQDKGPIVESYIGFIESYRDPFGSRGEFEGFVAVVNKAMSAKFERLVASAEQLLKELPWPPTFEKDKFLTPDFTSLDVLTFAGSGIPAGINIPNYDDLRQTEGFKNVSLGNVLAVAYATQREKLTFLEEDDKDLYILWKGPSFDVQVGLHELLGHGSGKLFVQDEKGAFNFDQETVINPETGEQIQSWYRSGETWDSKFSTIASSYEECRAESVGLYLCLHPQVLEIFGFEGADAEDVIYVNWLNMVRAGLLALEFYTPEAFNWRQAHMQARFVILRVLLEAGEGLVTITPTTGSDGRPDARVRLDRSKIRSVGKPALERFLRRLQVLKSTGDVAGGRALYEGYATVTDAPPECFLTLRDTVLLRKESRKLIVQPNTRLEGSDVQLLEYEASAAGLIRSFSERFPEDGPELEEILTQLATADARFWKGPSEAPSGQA
Description: (§1) The enzymatic activities of the wild-type enzyme and the active smFRET construct (still containing residue Glu-451) were determined using a fluorometric assay, which measures the release of β-naphthylamine upon cleavage of the synthetic substrate Arg-Arg-β-naphthylamide (excitation at 320 nm and emission at 420 nm)[41]. Kinetic parameters were determined at 37 °C in 50mM Tris-HCl buffer pH 8.0, containing 100 mM NaCl. The protein concentrations were 20 pM (wild-type enzyme) and 50 pM (smFRET construct). The substrate concentration was varied from 1 μM to 200 μM. The initial rate of fluorescence increase was monitored continuously for 5 min and was converted into the velocity of the reaction using a calibration curve for β-naphthylamine. Non-linear regression using the program GraphPad Prism (www.graphpad.com) yielded the values for vmax and KM.

[7] = biological target: T2, active smFRET construct of hDPP III (still containing residue Glu-451) (Homo sapiens, UniProt Q9NY33, C19S/C519S/C654S/E207C/S491C); assay: Fluorometric activity assay, release of β-naphthylamine, active smFRET construct; assay type: biochemical; conditions: active smFRET construct 50 pM; substrate 1 μM to 200 μM; 37 °C, 50 mM Tris-HCl pH 8.0, 100 mM NaCl; fluorescence ex 320 nm, em 420 nm
T2 construct: His6-tag with TEV protease cleavage site (N, cleaved yes); made in house; host or cells: E. coli BL21-CodonPlus (DE3) RIL
T2 sequence (Q9NY33 1-726 C19S/E207C/S491C/C519S/C654S limits assumed): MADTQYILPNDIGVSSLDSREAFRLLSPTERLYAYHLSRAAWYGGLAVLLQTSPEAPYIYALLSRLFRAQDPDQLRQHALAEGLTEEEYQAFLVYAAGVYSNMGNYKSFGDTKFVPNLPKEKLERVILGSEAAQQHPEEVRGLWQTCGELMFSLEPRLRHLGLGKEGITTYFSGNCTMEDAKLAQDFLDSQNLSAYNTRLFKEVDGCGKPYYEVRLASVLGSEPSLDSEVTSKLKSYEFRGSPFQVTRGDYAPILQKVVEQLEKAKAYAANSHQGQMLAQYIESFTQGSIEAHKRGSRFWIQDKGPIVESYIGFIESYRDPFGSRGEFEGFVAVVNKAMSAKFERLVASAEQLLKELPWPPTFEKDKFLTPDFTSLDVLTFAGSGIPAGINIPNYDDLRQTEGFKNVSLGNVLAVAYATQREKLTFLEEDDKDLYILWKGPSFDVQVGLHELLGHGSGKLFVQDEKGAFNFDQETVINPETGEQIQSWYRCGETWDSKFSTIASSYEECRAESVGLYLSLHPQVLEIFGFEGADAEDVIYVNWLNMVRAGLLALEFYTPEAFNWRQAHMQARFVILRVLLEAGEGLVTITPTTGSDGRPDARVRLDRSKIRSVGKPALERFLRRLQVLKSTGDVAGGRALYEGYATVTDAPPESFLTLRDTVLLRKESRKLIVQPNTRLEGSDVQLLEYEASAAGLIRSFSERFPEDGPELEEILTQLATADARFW
Description: as §1

[8] = biological target: inactive hDPP3 variant; parameters: method as in PMID 22493238; conditions: cited from earlier work
[9] = test system: rat DPP III; parameters: method as in PMID 12895665; conditions: cited from earlier work
[10] = biological target: T3, human dipeptidyl peptidase III (1-726), inactive E451A variant, smFRET construct (C19S, C519S, C654S, E207C, … (human, UniProt Q9NY33 1-726, E451A | C19 exchanged to serine | C519 exchanged to serine | C654 exchanged to …)); assay: crystal structure; co-crystallisation; protein 8 mg mL^-1, protein:ligand about 1:30, sitting drop vapour diffusion at 20 °C, microseeding with crystals of the angiotensin II complex; conditions: both partners purified
T3 construct: human dipeptidyl peptidase III, residues 1-726 (lacks 11 C-terminal residues), with E451A and five surface exchanges made for smFRET; Vector pET28-MHL; His6-tag removed with TEV protease, so residues of the cleavage site may remain at the N-terminus; also called hDPP III; hDPP3; source: E. coli BL21-CodonPlus (DE3) RIL, purified (Ni-NTA, ResourceQ anion exchange, TEV cleavage, Superdex 200); not …
T3 sequence (looked up): T2 sequence (Q9NY33 1-726 C19S/E207C/S491C/C519S/C654S limits assumed) with E451A

Molecule: YGGFM [Met-enkephalin, endogenous opioid neurotransmitter (YGGFM)]
- cleavage by hDPP III (in words) [1]: shown to be cleaved by hDPP III
- in vitro substrate of hDPP III (in words) [1]: known in vitro substrates of hDPP III

Molecule: angiotensin-II (peptide)
- Kd [2]: 1640 nM
- dH [2]: 3.64 kcal/mol

Molecule: VVYPW [tynorphin]
- character of binding (thermodynamic, in words) [3]: endothermic process driven by entropic changes
- inhibition (in words) [4]: shown to inhibit partially purified DPP III from monkey brain
- period over which the peptide appears to be hydrolysed [1]: about 24 hours
- inhibition of human DPP III (in words) [5]: described as an inhibitor of human DPP III

Molecule: Arg-Arg-β-naphthylamide [synthetic substrate releasing β-naphthylamine upon cleavage]
- Km [6]: 24 µM
- kcat [6]: 24 s⁻¹
- Km [7]: 30 µM
- kcat [7]: 28 s⁻¹

Molecule: YPFF-NH2 [endomorphin-2, opioid peptide with amidated C-terminus]
- in vitro substrate of hDPP III (in words) [1]: known in vitro substrates of hDPP III

Molecule: YGGFL [Leu-enkephalin, endogenous opioid neurotransmitter (YGGFL)]
- Kd [8]: 3600 nM
- cleavage by hDPP III (in words) [1]: shown to be cleaved by hDPP III
- in vitro substrate of hDPP III (in words) [1]: known in vitro substrates of hDPP III

Molecule: IVYPW
- relative inhibitory strength (in words) ([9]; compared with tynorphin, presumably ref 23): a stronger inhibitor than tynorphin
- inhibition (in words) ([9]; rat DPP III): nanomolar affinity
- inhibition of the enzyme (in words) [5]: described as an inhibitor of the enzyme

B1: Met-enkephalin (peptide)
peptide: YGGFM
notes: Met-enkephalin, endogenous opioid pentapeptide cut from proenkephalin-A; also called YGGFM
- binding result [10]: binds

B2: Leu-enkephalin (peptide)
peptide: YGGFL
notes: Leu-enkephalin, endogenous opioid pentapeptide cut from proenkephalin-A (also held in prodynorphin); also called YGGFL
- binding result [10]: binds

B3: synthetic opioid peptide IVYPW (peptide)
peptide: IVYPW
notes: synthetic opioid peptide, similar to tynorphin (VVYPW), a derivative of spinorphin
- binding result [10]: binds
